Where “and” joins values, the source holds several entries; their conditions need not be identical. Equal entries are not always repeated.
How the values were obtained:
H3K9Ac (KAT2A/B) = assay: Histone biomarker bottom-up LC-MS/MS, MCF-7; format: cell-based; conditions: for Ratio, H3_9_17 K9ac: Replicates 1-3
BT-549 cells = assay: NCI-60 cell line screen, sulforhodamine B growth inhibition; format: cell-based, human; conditions: BT-549, 10 and 100 μM, 48 h
Text: As a comparator we used growth inhibition caused by treatment of cells with CPI-1612,[45], [46] a potent inhibitor of the EP300/CREBBP (KAT3A/B), widely regarded as the master regulator of protein acetylation.
Figure 6. […] (C) Dependence of breast cancer cell lines on non-MYST KATs (EP300, CREBBP), MYST KATs (KAT6A, KAT6B, KAT7, KAT8, KAT5), and a MYST KAT complex member (BRPF1) derived from on DepMap CRISPR screening data. BT-549 is highlighted in orange. Lower CERES score indicates a greater dependence of the cell line on the specified gene. […] Data is representiative of n=2 biological replicates.
(0.01, 0.1, 1, 10, 100 μM) for 48 hours and analyzed by sulforhodamine B assay for growth inhibition as previously described.12-14 o validate the NCI-60 relative activity trends using an orthogonal method, we […]
0.94, 0.47, 0.23, 0 μM) for 96 hours. Experiments were performed in quadruplicate, and cell viability was measured using CellTiter-Glo® Luminescent Cell Viability Assay (Promega, G7572) according to the manufacturer's instructions. Luminescence signals were recorded on a BioTek Synergy 2 plate reader, and results were normalized to vehicle-treated controls (set to 100%). Half-maximal inhibition values (IC₅₀) were determined from nonlinear regression analysis of dose-response curves using GraphPad Prism 9. […]

Q: With `COc1cccc(OC)c1S(=O)(=O)Nc1noc2cc(Cn3cccn3)cc(OC)c12` [PF-9363] as the molecule, how does the “Fold-change 0.1 v 30, H3_9_17 K9ac” value (H3K9Ac (KAT2A/B); KAT marker KAT2A/B, PF-9363 0.1 v 30) read?
A: The value was 1.55.

Q: And the “Average ratio, H3_9_17 K9ac” value (H3K9Ac (KAT2A/B); KAT marker KAT2A/B, PF-9363 (30 μM))?
A: The value was 0.0036.

Q: What about the “Average ratio, H3_9_17 K9ac” value (H3K9Ac (KAT2A/B); KAT marker KAT2A/B, PF-9363 (0.1 mM)) of the same molecule?
A: The value was 0.0056.

Q: What about the “Ratio, H3_9_17 K9ac” value (H3K9Ac (KAT2A/B); KAT marker KAT2A/B, dose 0.1) of the same molecule?
A: The value was 0.007813 and 0.000147 and 0.0089.

Q: And the “Ratio, H3_9_17 K9ac” value (H3K9Ac (KAT2A/B); KAT marker KAT2A/B, dose 1)?
A: Its value is 0.005499 and 0.002205 and 0.005001.

Q: And the “Ratio, H3_9_17 K9ac” value (H3K9Ac (KAT2A/B); KAT marker KAT2A/B, dose 10)?
A: Its value is 0.000496 and 0.002771 and 0.002815.

Q: What about the “Ratio, H3_9_17 K9ac” value (H3K9Ac (KAT2A/B); KAT marker KAT2A/B, dose 30) of the same molecule?
A: The value was 0.004671 and 0.003182 and 0.003055.

Q: And the “modulation of H3K9Ac” value (H3K9Ac (KAT2A/B); MCF-7 cells, 24 h, any concentration (0.1-30 μM))?
A: The value was “not found to modulate”.

Q: And the “growth inhibition compared with CPI-1612” value (BT-549 cells)?
A: Its value is “greater growth inhibition”.

From doi:10.1101/2025.04.25.650653, “Hierarchical small molecule inhibition of MYST acetyltransferases” (bioRxiv, 2025)
